The target in data set [1] is IL-23 mediated phospho-STAT3 formation in DB cells (Homo sapiens, UniProt Q5VWK5). Kind of data set: Functional inhibition of IL-23 mediated STAT3 signalling (phospho-STAT3 Tyr705 MSD) in DB cells. The format is cell-based. The note with it: Table 3-1; DB cells; read-out: IC50 (pSTAT3). An excerpt:
Functional Inhibition of IL-23 Mediated STAT3 Signalling by Compounds
Upon binding of IL-23, the IL-23R forms a heterodimer signalling complex together with IL-12R β1, which through the JAK2/STAT3 pathway promotes phosphorylation of STAT3 to form phospho-STAT3.
The assay was used to quantify the functional antagonism of a compound and to rank order the inhibitor compounds according to their potency. For compounds tested in this assay, the response was normalized relative to control values to calculate the IC50 and maximal inhibitory response from a concentration response curve of the compound in presence of a fixed concentration of human IL-23.
The assay procedure was as follows. […] Following preincubation of the DB cells with inhibitor for 15 min in a cell incubator (37° C., 5% CO2), 20 μL of the prepared 3× the EC80 of hIL-23 solution was added to each well and incubated for 90 min in a cell incubator (37° C., 5% CO2). For some wells buffer only or IL-23 only corresponding to the EC80 was added to obtain readouts needed for normalization. To terminate the assay, the plate was spun at 1000 G for 5 min to pellet cells, the supernatant removed using an 8-channel manual pipette, and then added 50 μL/well Complete Lysis Buffer from the MSD STAT3 kit (Cat #K150SVD, Mesoscale) to the cell pellet. To completely lyse cells to release phospho-STAT3 for detection, the plate was shaken for 10 min at room temperature (500 rpm) sealed with aluminum foil and placed at −80° C. for a minimum of 15 min. Detection of the phospho-STAT3 level in the cell lysate from the individual wells was determined using the MSD STAT3 kit (Cat #K150SVD, Mesoscale) and read on a Meso QuickPlex SQ 120 plate reader (Mesoscale).
For data analysis raw data counts from the Meso QuickPlex SQ 120 plate reader were normalized relative to the response by the EC80 of hIL-23 alone (no compound added) and the buffer level. Compound potency (IC50) and maximal inhibitory response (% inhibition) were estimated by computer-aided curve fitting using a 4-parameter logistic (4PL) non-linear model.

In data set [2] the target is T1, human IL-23R (Homo sapiens, UniProt Q5VWK5).
T1 construct: UniProtKB—Q5VWK5, amino acids 22-629; secretion signal of the plasmid (Promega N1371); expressed in transfected cells
T1 sequence (Q5VWK5 22-629): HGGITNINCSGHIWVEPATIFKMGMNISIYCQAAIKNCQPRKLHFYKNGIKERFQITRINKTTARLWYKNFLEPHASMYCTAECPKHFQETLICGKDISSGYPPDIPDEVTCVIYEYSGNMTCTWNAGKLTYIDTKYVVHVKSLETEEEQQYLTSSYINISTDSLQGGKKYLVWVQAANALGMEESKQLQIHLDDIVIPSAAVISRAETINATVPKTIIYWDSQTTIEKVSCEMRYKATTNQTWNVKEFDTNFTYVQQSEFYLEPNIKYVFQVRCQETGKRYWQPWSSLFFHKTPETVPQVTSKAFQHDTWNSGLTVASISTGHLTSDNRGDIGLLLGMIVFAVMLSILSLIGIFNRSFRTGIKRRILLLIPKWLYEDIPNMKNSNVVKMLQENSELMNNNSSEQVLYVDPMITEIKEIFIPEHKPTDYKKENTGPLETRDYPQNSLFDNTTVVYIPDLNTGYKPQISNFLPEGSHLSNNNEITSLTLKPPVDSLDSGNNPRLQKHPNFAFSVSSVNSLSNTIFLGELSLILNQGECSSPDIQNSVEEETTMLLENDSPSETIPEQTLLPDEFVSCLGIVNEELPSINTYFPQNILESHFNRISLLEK
Kind of data set: Binding assay (NanoBRET displacement of fluorophore-labelled reference compound) for estimating binding affinity to human IL-23R. As to conditions: Table 3-1; read-out: Ki hIL-23R.

A short description of data set [3]: Peptide stability in simulated intestinal fluid (SIF). The format is in vitro ADME. As to conditions: pig, simulated intestinal fluid (SIF) with porcine pancreatin, Table 3-2, porcine pancreatin, pH 6.8, 37° C., 10 μM. The protocol: Determination of Peptide Stability in Simulated Gastric Fluid (SGF) and Simulated Intestinal Fluid (SIF)
SGF was prepared by dissolving sodium chloride (0.2 g) in 50 mL of water. A volume of 0.7 mL of 10 M HCl was added to adjust the pH of the solution to 1.2 and the volume made up to 100 mL with water. […] SIF was prepared by dissolving monobasic potassium phosphate (0.68 g) in 50 mL of water and adjusting the pH to 6.8 with 1 M NaOH. The volume was subsequently made up to 100 mL with water. 200 mg porcine pancreatin (P1625, Sigma Aldrich) was gently dissolved into 20 mL preheated (37° C.) solution (10 g/L) immediately prior to the incubation.
The incubation was performed at 37° C. with gentle shaking. […] After the last timepoint, the sampling plate was mixed for 10 min on a shaking table and centrifuged 10 min at 2200 g. 70 μL resulting supernatant was diluted with 150 μL water, mixed and centrifugated before analysis by liquid chromatography high resolution mass spectrometry. […] Percent remaining at each timepoint was calculated relative to timepoint zero based on absolute peak areas.

The structures appear in SMILES notation. *1 amine or outer side, *2 acyl side, *3 side chain or, on linkers, in order; H or OH if unused. Where a SMILES comes first, the peptide text is derived from it. Bridges are numbered along the chain shown (N, C = ends). [ ]: non-standard residue; d: D form. Pipz(1-CH2CO,4-CH2CH2NH) = O=C(CN1CCN(CCN[*:1])CC1)[*:2]; 2Nal = N[C@@H](Cc1ccc2ccccc2c1)C(=O)O; AEF = NCCOc1ccc(C[C@H](N)C(=O)O)cc1; αMeL = CC(C)C[C@](C)(N)C(=O)O; CH2COCH2 = O=C(C[*:1])C[*:2]; αMeK = C[C@](N)(CCCCN)C(=O)O; Ahx = NCCCCCC(=O)O

Take `CC(=O)N[C@@H](CC(=O)O)C(=O)N[C@H]1CCC(=O)NCCCC[C@@H](C(N)=O)NC(=O)[C@H](CC(C)C)NC(=O)[C@H](Cc2c[nH]c3ccccc23)NC(=O)[C@H](Cc2c[nH]c3ccccc23)NC(=O)[C@@H]2CSCC(=O)CSC[C@H](NC(=O)[C@H](CO)NC1=O)C(=O)N[C@@H](Cc1c[nH]c3ccccc13)C(=O)N[C@@H](CCC(N)=O)C(=O)N2` [Compound 11, [Ac]-DE(1c)SC(2a)WQC(2a)WWLK(1c)-[NH2]] (HELM PEPTIDE1{[ac].D.E.S.C.W.Q.C.W.W.L.K.[am]}|CHEM1{[O=C(C[*:1])C[*:2]]}$PEPTIDE1,PEPTIDE1,3:R3-12:R3|PEPTIDE1,CHEM1,5:R3-1:R1|PEPTIDE1,CHEM1,8:R3-1:R2$$$V2.0): the IC50 in data set [1] was more than 1000 nM.

As for `CC(=O)N[C@H]1CCC(=O)NCCCC[C@@H](C(N)=O)NC(=O)[C@H](CC(C)C)NC(=O)[C@H](Cc2c[nH]c3ccccc23)NC(=O)[C@H](Cc2c[nH]c3ccccc23)NC(=O)[C@@H]2CSCC(=O)CSC[C@H](NC(=O)[C@H](CO)NC1=O)C(=O)N[C@@H](Cc1c[nH]c3ccccc13)C(=O)N[C@@H](CCC(N)=O)C(=O)N2` [Compound 12, [Ac]-E(1c)SC(2a)WQC(2a)WWLK(1c)-[NH2]] (HELM PEPTIDE1{[ac].E.S.C.W.Q.C.W.W.L.K.[am]}|CHEM1{[O=C(C[*:1])C[*:2]]}$PEPTIDE1,PEPTIDE1,2:R3-11:R3|PEPTIDE1,CHEM1,4:R3-1:R1|PEPTIDE1,CHEM1,7:R3-1:R2$$$V2.0), the IC50 in data set [1] is more than 1000 nM.

On to `CC(=O)N[C@H]1CCCCNC(=O)CC[C@@H](C(=O)N[C@@H](CCCNC(=N)N)C(N)=O)NC(=O)[C@H](CC(C)C)NC(=O)[C@H](Cc2ccc3ccccc3c2)NC(=O)[C@H](Cc2c[nH]c3ccccc23)NC(=O)[C@@H]2CSCC(=O)CSC[C@H](NC(=O)[C@H](CO)NC1=O)C(=O)N[C@@H](Cc1ccc3ccccc3c1)C(=O)N[C@@H](CCC(N)=O)C(=O)N2` [Compound 25, [Ac]-K(1c)SC(2a)[2-Nal]QC(2a)W[2-Nal]LE(1c)R-[NH2]] (Ac-KSC[2Nal]QCW[2Nal]LER-NH2; lactam 1-10; linker 3-6 via CH2COCH2), for which, in data set [1], the IC50 was more than 1000 nM.

Consider `CC(=O)N[C@@H](CC(=O)O)C(=O)N[C@H]1CCC(=O)NCCCC[C@@H](C(=O)N[C@@H](CCCNC(=N)N)C(N)=O)NC(=O)[C@](C)(CC(C)C)NC(=O)[C@H](Cc2c[nH]c3ccccc23)NC(=O)[C@H](Cc2ccc(O)cc2)NC(=O)[C@@H]2CSCC(=O)CSC[C@H](NC(=O)[C@H](CCC(N)=O)NC1=O)C(=O)N[C@@H](Cc1c[nH]c3ccccc13)C(=O)N[C@@H](CCC(N)=O)C(=O)N2` [Compound 55, [Ac]-DE(1c)QC(2a)WQC(2a)YW[2-Me-Leu]K(1c)R-[NH2]] (HELM PEPTIDE1{[ac].D.E.Q.C.W.Q.C.Y.W.[CC(C)C[C@](C)(N[*:1])C(=O)[*:2]].K.R.[am]}|CHEM1{[O=C(C[*:1])C[*:2]]}$PEPTIDE1,PEPTIDE1,3:R3-12:R3|PEPTIDE1,CHEM1,5:R3-1:R1|PEPTIDE1,CHEM1,8:R3-1:R2$$$V2.0), for which the IC50 in data set [1] was more than 1000 nM.

As to `CC(=O)N[C@@H](CC(=O)O)C(=O)N[C@H]1CCC(=O)NCCCC[C@@H](C(=O)N[C@@H](CCCNC(=N)N)C(N)=O)NC(=O)[C@](C)(CC(C)C)NC(=O)[C@H](Cc2c[nH]c3ccccc23)NC(=O)[C@H](Cc2ccc3ccccc3c2)NC(=O)[C@@H]2CSCC(=O)CSC[C@H](NC(=O)[C@H](CCC(N)=O)NC1=O)C(=O)N[C@@H](Cc1c[nH]c3ccccc13)C(=O)N[C@@H](CCC(N)=O)C(=O)N2` [Compound 56, [Ac]-DE(1c)QC(2a)WQC(2a)[2-Nal]W[2-Me-Leu]K(1c)R-[NH2]] (Ac-DEQCWQC[2Nal]W[αMeL]KR-NH2; lactam 2-11; linker 4-7 via CH2COCH2), the IC50 in data set [1] is more than 1000 nM.

Turning to `CC(=O)N[C@@H](CC(=O)O)C(=O)N[C@H]1CCC(=O)NCCCC[C@@H](C(=O)N[C@@H](CCC(=O)O)C(=O)N[C@@H](CC(N)=O)C(=O)NCC(N)=O)NC(=O)[C@](C)(CCCCN)NC(=O)[C@H](Cc2ccc3ccccc3c2)NC(=O)[C@H](Cc2c[nH]c3ccccc23)NC(=O)[C@@H]2CSCC(=O)CSC[C@H](NC(=O)[C@H](CO)NC1=O)C(=O)N[C@@H](Cc1c[nH]c3ccccc13)C(=O)N[C@@H](CCC(N)=O)C(=O)N2` [Compound 61, [Ac]-DE(1c)SC(2a)WQC(2a)W[2-Nal][2-Me-Lys]K(1c)ENG-[NH2]] (Ac-DESCWQCW[2Nal][αMeK]KENG-NH2; lactam 2-11; linker 4-7 via CH2COCH2), in data set [1], the IC50 was more than 1000 nM.

As for `CC(C)C[C@]1(C)NC(=O)[C@H](Cc2ccc3ccccc3c2)NC(=O)[C@H](Cc2ccc(OCCN)cc2)NC(=O)[C@@H]2CSCC(=O)CSC[C@H](NC(=O)[C@H](CO)NC(=O)CCCCCNC(=O)CC[C@@H](C(=O)N[C@H](CCCNC(=N)N)C(N)=O)NC1=O)C(=O)N[C@@H](Cc1c[nH]c3ccccc13)C(=O)N[C@@H](CCC(N)=O)C(=O)N2` [Compound 87, [6-Aminohexanoyl](1c)*SC(2a)WQC(2a)[Y(2-aminoethoxy)][2-Nal][2-Me-Leu]E(1c)[{d}R]-[NH2]] ([Ahx]SCWQC[AEF][2Nal][αMeL]E[dR]-NH2; linker 3-6 via CH2COCH2; lactam N-10), in data set [2], the Ki was 0.439 nM. In addition, the share remaining at 1 h, 10 μM in data set [3] (1 h, read-out: SIF (% remaining 1 h)) is 95%.

`CC(C)C[C@]1(C)NC(=O)[C@H](Cc2ccc3ccccc3c2)NC(=O)[C@H](Cc2ccc(OCCN)cc2)NC(=O)[C@@H]2CSCC(=O)CSC[C@H](NC(=O)[C@H](CO)NC(=O)CN3CCN(CCNC(=O)CC[C@@H](C(=O)N[C@H](CCCNC(=N)N)C(N)=O)NC1=O)CC3)C(=O)N[C@@H](Cc1c[nH]c3ccccc13)C(=O)N[C@@H](CCC(N)=O)C(=O)N2` [Compound 90, [(4-(2-Aminoethyl)-piperazine-1-yl)-acetyl](1c)*SC(2a)WQC(2a)[Y(2-aminoethoxy)][2-Nal][2-Me-Leu]E(1c)[{d}R]-[NH2]] ([Pipz(1-CH2CO,4-CH2CH2NH)]SCWQC[AEF][2Nal][αMeL]E[dR]-NH2; linker 3-6 via CH2COCH2; lactam N-10): the Ki in data set [2] is 0.706 nM. The fraction remaining at 4 h, 10 μM in data set [3] (4 h, read-out: SIF (% remaining 4 h)) is 67%.

What is called IC50 is the concentration that gives 50% inhibition. Broadly, the Ki is a measure of affinity in units of concentration, obtained from inhibition or displacement. As usually defined, the fraction remaining is what is left of the initial amount, in per cent.

Source of the values: patent US20250154198A1, “PEPTIDE INHIBITORS OF INTERLEUKIN-23 RECEPTOR” (Zealand Pharma A/S, priority 2021, published 2025).
